± gives the expanded uncertainty stated by the source.
How the values were obtained:
[1] = xn = mol fraction of the nth substance listed; settings: 101 kPa, Liquid; for speed of sound: Linear variable-path acoustic interferometer; for mass density: Vibrating tube method
[2] = excess molar enthalpy (molar enthalpy of mixing); xn = mol fraction of the nth substance listed; settings: 298.15 K, 101 kPa, Liquid, 2-drop calorimetry

Cc1ccccn1 [2-methylpyridine] + CCn1cc[n+](C)c1.F[B-](F)(F)F
[1]
Settings	mass density, 293.15 K [kg/m3]	mass density, 298.15 K [kg/m3]	mass density, 303.15 K [kg/m3]	mass density, 308.15 K [kg/m3]	speed of sound, 293.15 K [m/s]	speed of sound, 298.15 K [m/s]	speed of sound, 303.15 K [m/s]	speed of sound, 308.15 K [m/s]
x2 = 0.1219	1013.9 ± 0.87	1010.93 ± 0.87	1006.33 ± 0.86	1002.14 ± 0.85	1438.3 ± 2.5	1415.5 ± 2.5	1397.7 ± 2.5	1379.6 ± 2.5
x2 = 0.1776	1043.45 ± 0.93	1040.53 ± 0.93	1036.16 ± 0.92	1032.07 ± 0.91	1457.5 ± 2.5	1434.8 ± 2.5	1417.2 ± 2.5	1400 ± 2.5
x2 = 0.2341	1071.82 ± 0.99	1068.69 ± 0.98	1064.53 ± 0.98	1060.5 ± 0.97	1478.2 ± 2.5	1454.8 ± 2.5	1438.3 ± 2.5	1422 ± 2.5
x2 = 0.2778	1092.45 ± 1	1089.12 ± 1	1085.1 ± 1	1081.18 ± 1	1494.2 ± 2.5	1471 ± 2.5	1454.4 ± 2.5	1439.1 ± 2.5
x2 = 0.3209	1111.76 ± 1.1	1108.07 ± 1.1	1104.33 ± 1.1	1100.37 ± 1.1	1509.3 ± 2.5	1487.7 ± 2.5	1470.8 ± 2.5	1455.6 ± 2.5
x2 = 0.3721	1133.09 ± 1.1	1129.16 ± 1.1	1125.57 ± 1.1	1121.65 ± 1.1	1527.3 ± 2.5	1506.4 ± 2.5	1490.5 ± 2.5	1475.5 ± 2.5
x2 = 0.4232	1152.77 ± 1.2	1148.64 ± 1.2	1145.21 ± 1.1	1141.21 ± 1.1	1544.8 ± 2.5	1525.5 ± 2.5	1509 ± 2.5	1495 ± 2.5
x2 = 0.4727	1170.31 ± 1.2	1166.05 ± 1.2	1162.72 ± 1.2	1158.68 ± 1.2	1560 ± 2.6	1542.7 ± 2.5	1525.2 ± 2.5	1513.6 ± 2.5
x2 = 0.5217	1186.07 ± 1.2	1181.95 ± 1.2	1178.63 ± 1.2	1174.56 ± 1.2	1572.9 ± 2.6	1557.7 ± 2.6	1540.6 ± 2.5	1530.3 ± 2.5
x2 = 0.5742	1201.42 ± 1.3	1197.47 ± 1.3	1194.21 ± 1.3	1190.05 ± 1.2	1585.5 ± 2.6	1572.9 ± 2.6	1555.3 ± 2.6	1545.9 ± 2.5
x2 = 0.6217	1214.02 ± 1.3	1210.21 ± 1.3	1206.93 ± 1.3	1202.85 ± 1.3	1595.6 ± 2.6	1585 ± 2.6	1567.5 ± 2.6	1559 ± 2.6
x2 = 0.6724	1226.14 ± 1.3	1222.71 ± 1.3	1219.36 ± 1.3	1215.15 ± 1.3	1603.9 ± 2.6	1596.5 ± 2.6	1577.8 ± 2.6	1571.1 ± 2.6
x2 = 0.7228	1236.96 ± 1.4	1233.88 ± 1.4	1230.44 ± 1.3	1226.27 ± 1.3	1609.8 ± 2.6	1605.1 ± 2.6	1586.2 ± 2.6	1581.5 ± 2.6
x2 = 0.7725	1246.69 ± 1.4	1243.95 ± 1.4	1240.41 ± 1.4	1236.19 ± 1.4	1614.7 ± 2.6	1611.1 ± 2.6	1592.1 ± 2.6	1589 ± 2.6
x2 = 0.8216	1255.54 ± 1.4	1252.96 ± 1.4	1249.32 ± 1.4	1245.1 ± 1.4	1618.6 ± 2.6	1615.5 ± 2.6	1596.9 ± 2.6	1593.8 ± 2.6
x2 = 0.8741	1264.27 ± 1.4	1261.73 ± 1.4	1257.98 ± 1.4	1253.82 ± 1.4	1621.8 ± 2.6	1618.7 ± 2.6	1600.8 ± 2.6	1597.4 ± 2.6
x2 = 0.9218	1271.82 ± 1.4	1269.01 ± 1.4	1265.26 ± 1.4	1261.08 ± 1.4	1624.6 ± 2.6	1619.8 ± 2.6	1603.5 ± 2.6	1598.2 ± 2.6
x2 = 0.9319	1273.41 ± 1.4	1270.5 ± 1.4	1266.74 ± 1.4	1262.57 ± 1.4	1625.3 ± 2.6	1619.6 ± 2.6	1604 ± 2.6	1598.3 ± 2.6

[2]
Settings	excess molar enthalpy [kcal/mol]
x2 = 0.1132	-0.0261 ± 0.000645
x2 = 0.1578	-0.0354 ± 0.000837
x2 = 0.2087	-0.0464 ± 0.00105
x2 = 0.2467	-0.0538 ± 0.00122
x2 = 0.2976	-0.0636 ± 0.00141
x2 = 0.3245	-0.0684 ± 0.00151
x2 = 0.3789	-0.078 ± 0.00172
x2 = 0.4235	-0.0852 ± 0.00186
x2 = 0.4876	-0.0945 ± 0.00208
x2 = 0.5123	-0.0976 ± 0.00213
x2 = 0.5734	-0.104 ± 0.00227
x2 = 0.6145	-0.107 ± 0.00234
x2 = 0.6634	-0.108 ± 0.00237
x2 = 0.7145	-0.104 ± 0.00227
x2 = 0.7856	-0.0953 ± 0.00208
x2 = 0.8265	-0.086 ± 0.00189
x2 = 0.8723	-0.0727 ± 0.0016
x2 = 0.9226	-0.05 ± 0.00112

Cc1cccnc1 [3-methylpyridine] + CCn1cc[n+](C)c1.F[B-](F)(F)F
[1]
Settings	mass density, 293.15 K [kg/m3]	mass density, 298.15 K [kg/m3]	mass density, 303.15 K [kg/m3]	mass density, 308.15 K [kg/m3]	speed of sound, 293.15 K [m/s]	speed of sound, 298.15 K [m/s]	speed of sound, 303.15 K [m/s]	speed of sound, 308.15 K [m/s]
x2 = 0.1217	1024.56 ± 0.32	1020.46 ± 0.32	1016.63 ± 0.31	1011.73 ± 0.31	1479.9 ± 1.9	1465 ± 1.9	1443.4 ± 1.9	1427 ± 1.9
x2 = 0.1729	1050.57 ± 0.37	1046.54 ± 0.36	1042.83 ± 0.36	1038.13 ± 0.35	1494.7 ± 1.9	1480.8 ± 1.9	1459.7 ± 1.9	1443.9 ± 1.9
x2 = 0.2415	1082.96 ± 0.43	1079.02 ± 0.43	1075.3 ± 0.42	1070.72 ± 0.42	1514 ± 2	1499.7 ± 2	1481.3 ± 2	1465.7 ± 2
x2 = 0.2711	1096.07 ± 0.46	1092.1 ± 0.46	1088.37 ± 0.45	1084.01 ± 0.45	1521.8 ± 2	1507.9 ± 2	1490.3 ± 2	1474.6 ± 2
x2 = 0.3214	1117.16 ± 0.52	1113.25 ± 0.51	1109.49 ± 0.51	1105.3 ± 0.5	1535.6 ± 2.1	1520.5 ± 2	1504.5 ± 2	1488.8 ± 2
x2 = 0.3732	1137.38 ± 0.58	1133.44 ± 0.57	1129.62 ± 0.57	1125.73 ± 0.56	1548.8 ± 2.1	1532.8 ± 2.1	1519.4 ± 2.1	1503.3 ± 2.1
x2 = 0.4219	1154.95 ± 0.63	1151.03 ± 0.63	1147.27 ± 0.62	1143.6 ± 0.62	1560.1 ± 2.1	1543.2 ± 2.1	1532.2 ± 2.1	1517 ± 2.1
x2 = 0.4718	1171.59 ± 0.69	1167.7 ± 0.69	1163.94 ± 0.68	1160.52 ± 0.68	1571.8 ± 2.2	1554.4 ± 2.2	1544.1 ± 2.2	1530 ± 2.2
x2 = 0.5209	1186.68 ± 0.76	1182.83 ± 0.75	1179.2 ± 0.75	1175.87 ± 0.74	1581.6 ± 2.2	1564 ± 2.2	1556 ± 2.2	1541.8 ± 2.2
x2 = 0.5723	1201.17 ± 0.82	1197.38 ± 0.82	1193.82 ± 0.81	1190.64 ± 0.81	1591.9 ± 2.3	1574.7 ± 2.2	1566.4 ± 2.2	1554.1 ± 2.2
x2 = 0.6221	1214.02 ± 0.89	1210.25 ± 0.89	1206.88 ± 0.88	1203.74 ± 0.88	1600.3 ± 2.3	1583.7 ± 2.3	1576.1 ± 2.3	1565.4 ± 2.3
x2 = 0.6731	1226.02 ± 0.96	1222.36 ± 0.96	1219.18 ± 0.95	1215.94 ± 0.95	1607.5 ± 2.3	1593 ± 2.3	1585.5 ± 2.3	1576.2 ± 2.3
x2 = 0.7212	1236.43 ± 1	1232.83 ± 1	1229.78 ± 1	1226.48 ± 1	1614.1 ± 2.4	1601.4 ± 2.4	1592.8 ± 2.4	1585.3 ± 2.4
x2 = 0.7708	1246.34 ± 1.1	1242.76 ± 1.1	1239.81 ± 1.1	1236.4 ± 1.1	1619.1 ± 2.4	1608.8 ± 2.4	1598.7 ± 2.4	1593.7 ± 2.4
x2 = 0.8224	1255.77 ± 1.2	1252.24 ± 1.2	1249.34 ± 1.2	1245.81 ± 1.2	1623.7 ± 2.5	1614.9 ± 2.5	1604.2 ± 2.5	1599.5 ± 2.4
x2 = 0.8713	1264.1 ± 1.3	1260.53 ± 1.2	1257.58 ± 1.2	1253.89 ± 1.2	1627.2 ± 2.5	1619.3 ± 2.5	1607.5 ± 2.5	1603 ± 2.5
x2 = 0.9119	1270.62 ± 1.3	1266.99 ± 1.3	1263.93 ± 1.3	1260.07 ± 1.3	1629 ± 2.5	1621.6 ± 2.5	1609 ± 2.5	1603.9 ± 2.5
x2 = 0.9317	1273.7 ± 1.4	1270 ± 1.4	1266.86 ± 1.3	1262.91 ± 1.3	1629.8 ± 2.5	1621.8 ± 2.5	1609.2 ± 2.5	1603.2 ± 2.5

[2]
Settings	excess molar enthalpy [kcal/mol]
x2 = 0.1256	-0.0325 ± 0.000765
x2 = 0.1676	-0.0409 ± 0.000932
x2 = 0.2089	-0.0491 ± 0.0011
x2 = 0.2578	-0.0586 ± 0.00131
x2 = 0.2976	-0.0651 ± 0.00146
x2 = 0.3387	-0.0702 ± 0.00155
x2 = 0.3898	-0.0766 ± 0.0017
x2 = 0.4367	-0.0814 ± 0.00179
x2 = 0.4876	-0.0864 ± 0.00189
x2 = 0.5223	-0.0882 ± 0.00194
x2 = 0.599	-0.0898 ± 0.00196
x2 = 0.6345	-0.089 ± 0.00196
x2 = 0.689	-0.0861 ± 0.00189
x2 = 0.7356	-0.081 ± 0.00179
x2 = 0.7909	-0.0713 ± 0.00158
x2 = 0.8479	-0.0582 ± 0.00131
x2 = 0.889	-0.047 ± 0.00108
x2 = 0.9109	-0.0393 ± 0.000908
